Here are results for 22 compounds from patent US20230210999A1, “TARGETED PROTEASE DEGRADATION (TED) PLATFORM” (EUBULUS BIOTHERAPEUTICS INC., priority 2020, published 2023).

Like-named read-outs stand apart in the source and are kept apart here.

Type in all cases: cell-based, human
Test [1] deals with MV4;11 cells. Put plainly: Cell proliferation experiment (Alamar blue, 72 h), MV4;11. Particulars: read-out: Inhibitory activity IC50 on MV4;11. The gist of the method: (§1)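 Single-cell suspensions from log-phase cultures, passaged at least 2 generations, are seeded into 96-well plates and given compound in complete medium. Following 72 h, fluorescence with Alamar blue is recorded and fitted for IC50.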
(The colour change of resazurin is a common sign of viable cells or microbes.)

Test [2] concerns NCIH82 cells. Put plainly: Cell proliferation experiment, NCI-H82. Particulars: read-out: Inhibitory activity IC50 on NCI-H82. A digest of the protocol: as §1
The subject of test [3] is MDA-MB-231 cells. Put plainly: Cell proliferation experiment, MDA-MB-231. As to conditions: read-out: Inhibitory activity IC50 on MDA-MB-231. The procedure: (§2) Reagents: RPMI-1640 medium, McCoy's 5A medium, IMDM medium, MEM medium, L-15 medium, fetal bovine serum. Penicillin-Streptomycin double antibody, trypsin, etc., 2-mercaptoethanol, NEAA, pyruvate, etc.
(§3) The cells were cultured in conventional ways, and the cells should be passed at least 2 generations before plating. Cells at the logarithmic growth phase were collected, prepared into single cell suspensions and counted. The concentration of cells was adjusted to the desired concentration, and cells were inoculated into a 96-well cell culture plate at 100 μl per well. 100 μL of complete medium of the test compound were added to each well, set up 2 duplicate wells for each concentration, and diluted with a 5-fold gradient, and continued to culture for 72 h. All cells were subjected to IC50 test for corresponding samples. The experimental results are shown in Test Example 4.
(§4) The fluorescence intensity of each well was detected using the Alarm blue method, and IC50 was calculated.
(§5) IC50 was calculated according to the following formula:
(§6) Y=Max+(Min−Max)/[1+(X/IC50)×Slope]
(§7) wherein Min, Max and Slope represent the minimum, maximum and slope respectively.

Test [4] deals with PC-3. Kind of test: Cell proliferation experiment, PC-3. As to conditions: read-out: Inhibitory activity IC50 on PC-3. The procedure:
as §2, §3, §4, §5, §6, §7

Where [5] appears, read: Homo sapiens, MV4-11, MV4;11 cells.
The mark [6] stands for this setting: Homo sapiens, NCI-H82, NCI-H82 cells.
Where [7] appears, read: Homo sapiens, MDA-MB-231, MDA-MB-231 cells.

Broadly, the IC50 is the midpoint of a concentration-inhibition curve. In the case of `O=C1CCC(N2Cc3cc(NC(=O)CCOCCNCCOCCn4cc(-c5ccc(Nc6ncc7c(n6)-c6ccc(Cl)cc6C(c6c(F)cccc6F)=NC7)cc5)nn4)ccc3C2=O)C(=O)N1` (stereo not shown) [UB-181041], the IC50 is over 1 µM in test [1] (setting [5]); over 1 µM in test [2] (setting [6]); over 1 µM in test [3] (setting [7]); over 1 µM in test [4] (Homo sapiens, PC-3, PC-3 cells).
With `CNC(=O)c1ccccc1Nc1nc(Nc2ccc(N3CCN(C(=O)NCCCCOCCCNCCC(=O)Nc4ccc5c(c4)CN(C4CCC(=O)NC4=O)C5=O)CC3)cc2)ncc1Cl` (stereo not shown) [UB-181042], the half-inhibitory concentration (IC50) in test [1] (setting [5]) was 0.01 to 0.1 µM; in test [2] (setting [6]), 0.1 to 1 µM; in test [3] (setting [7]), over 1 µM; in test [4] (Homo sapiens, PC-3, PC-3 cells), over 1 µM.
Take `CNC(=O)c1ccccc1Nc1nc(Nc2ccc(N3CCN(C(=O)NCCOCCOCCNCCC(=O)Nc4cccc5c4CN(C4CCC(=O)NC4=O)C5=O)CC3)cc2)ncc1Cl` (stereo not shown) [UB-181043]: the half-inhibitory concentration (IC50) in test [1] (setting [5]) was under 0.01 µM; in test [2] (setting [6]), 0.1 to 1 µM; in test [3] (setting [7]), over 1 µM; in test [4] (Homo sapiens, PC-3, PC-3 cells), over 1 µM.
In the case of `CNC(=O)c1ccccc1Nc1nc(Nc2ccc(N3CCN(C(=O)NCCNCCOCCOCCC(=O)Nc4ccc5c(c4)CN(C4CCC(=O)NC4=O)C5=O)CC3)cc2)ncc1Cl` (stereo not shown) [UB-181044], the IC50 was 0.01 to 0.1 µM in test [1] (setting [5]); 0.1 to 1 µM in test [2] (setting [6]); over 1 µM in test [3] (setting [7]); over 1 µM in test [4] (Homo sapiens, PC-3, PC-3 cells).
For the compound `CNC(=O)c1ccccc1Nc1nc(Nc2ccc(N3CCN(C(=O)NCCCCOCCCNCCC(=O)Nc4ccc5c(c4)CN(C4CCC(=O)NC4=O)C5=O)CC3)cc2)ncc1Cl` (stereo not shown) [UB-181046], the half-inhibitory concentration (IC50) in test [1] (MV4;11 cells) is under 0.01 µM; in test [2] (NCI-H82 cells) it was 0.1 to 1 µM; in test [3] (MDA-MB-231 cells) it was over 1 µM; in test [4] (PC-3 cells), over 1 µM.
Take `CNC(=O)c1ccccc1Nc1nc(Nc2ccc(N3CCN(C(=O)NCCOCCOCCCNCC(=O)Nc4ccc5c(c4)CN(C4CCC(=O)NC4=O)C5=O)CC3)cc2)ncc1Cl` (stereo not shown) [UB-181047]: the half-inhibitory concentration (IC50) in test [1] (setting [5]) was 0.01 to 0.1 µM; in test [2] (setting [6]) it was 0.1 to 1 µM; in test [3] (setting [7]) it was over 1 µM; in test [4] (Homo sapiens, PC-3, PC-3 cells), over 1 µM.
For the compound `CNC(=O)c1ccccc1Nc1nc(Nc2ccc(N3CCN(C(=O)NCCOCCNCCOCCC(=O)Nc4ccc5c(c4)CN(C4CCC(=O)NC4=O)C5=O)CC3)cc2)ncc1Cl` (stereo not shown) [UB-181050], the 50% inhibitory concentration (IC50) in test [1] (setting [5]) is 0.1 to 1 µM; in test [2] (setting [6]), 0.1 to 1 µM; in test [3] (setting [7]), over 1 µM; in test [4] (Homo sapiens, PC-3, PC-3 cells), over 1 µM.
For the compound `CNC(=O)c1ccccc1Nc1nc(Nc2ccc(N3CCN(C(=O)NCCOCCNCCOCCC(=O)Nc4cccc5c4CN(C4CCC(=O)NC4=O)C5=O)CC3)cc2)ncc1Cl` (stereo not shown) [UB-181051], the IC50 in test [1] (setting [5]) is 0.01 to 0.1 µM; in test [2] (setting [6]) it was over 1 µM; in test [3] (setting [7]), over 1 µM; in test [4] (Homo sapiens, PC-3, PC-3 cells), over 1 µM.
On to `CNC(=O)c1ccccc1Nc1nc(Nc2ccc(N3CCN(C(=O)NCCNCCC(=O)Nc4cccc5c4CN(C4CCC(=O)NC4=O)C5=O)CC3)cc2)ncc1Cl` (stereo not shown) [UB-181053], for which the IC50 in test [1] (setting [5]) is 0.01 to 0.1 µM; in test [2] (setting [6]) it was 0.1 to 1 µM; in test [3] (setting [7]), over 1 µM; in test [4] (Homo sapiens, PC-3, PC-3 cells), over 1 µM.
For the compound `CNC(=O)c1ccccc1Nc1nc(Nc2ccc(N3CCN(C(=O)NCCNCCCC(=O)Nc4cccc5c4CN(C4CCC(=O)NC4=O)C5=O)CC3)cc2)ncc1Cl` (stereo not shown) [UB-181055], the 50% inhibitory concentration (IC50) in test [1] (setting [5]) was 0.01 to 0.1 µM; in test [2] (setting [6]), 0.1 to 1 µM; in test [3] (setting [7]), over 1 µM; in test [4] (Homo sapiens, PC-3, PC-3 cells) it was over 1 µM.
With `CNC(=O)c1ccccc1Nc1nc(Nc2ccc(N3CCN(C(=O)NCCNCCCC(=O)Nc4ccc5c(c4)CN(C4CCC(=O)NC4=O)C5=O)CC3)cc2)ncc1Cl` (stereo not shown) [UB-181056], the IC50 in test [1] (setting [5]) is 0.01 to 0.1 µM; in test [2] (setting [6]), 0.1 to 1 µM; in test [3] (setting [7]) it was over 1 µM; in test [4] (Homo sapiens, PC-3, PC-3 cells) it was over 1 µM.
Turning to `CNC(=O)c1ccccc1Nc1nc(Nc2ccc(N3CCN(C(=O)NCCNCCOCC(=O)Nc4cccc5c4CN(C4CCC(=O)NC4=O)C5=O)CC3)cc2)ncc1Cl` (stereo not shown) [UB-181057], the IC50 in test [1] (setting [5]) is under 0.01 µM; in test [2] (setting [6]), 0.1 to 1 µM; in test [3] (setting [7]) it was over 1 µM; in test [4] (Homo sapiens, PC-3, PC-3 cells) it was over 1 µM.
As for `CNC(=O)c1ccccc1Nc1nc(Nc2ccc(N3CCN(C(=O)NCCNCCOCC(=O)Nc4ccc5c(c4)CN(C4CCC(=O)NC4=O)C5=O)CC3)cc2)ncc1Cl` (stereo not shown) [UB-181058], the IC50 in test [1] (setting [5]) is 0.01 to 0.1 µM; in test [2] (setting [6]), 0.1 to 1 µM; in test [3] (setting [7]) it was over 1 µM; in test [4] (Homo sapiens, PC-3, PC-3 cells), over 1 µM.
With `CNC(=O)c1ccccc1Nc1nc(Nc2ccc(N3CCN(C(=O)NCCOCCOCCOCCC(=O)Nc4ccc5c(c4)CN(C4CCC(=O)NC4=O)C5=O)CC3)cc2)ncc1Cl` (stereo not shown) [UB-181060], the IC50 in test [1] (setting [5]) was 0.01 to 0.1 µM; in test [2] (setting [6]) it was 0.01 to 0.1 µM; in test [3] (setting [7]), over 1 µM; in test [4] (Homo sapiens, PC-3, PC-3 cells), over 1 µM.
`CNC(=O)c1ccccc1Nc1nc(Nc2ccc(N3CCN(C(=O)NCCCNCCOCC(=O)Nc4cccc5c4CN(C4CCC(=O)NC4=O)C5=O)CC3)cc2)ncc1Cl` (stereo not shown) [UB-181061]: the IC50 in test [1] (setting [5]) was under 0.01 µM; in test [2] (setting [6]) it was 0.1 to 1 µM; in test [3] (setting [7]) it was 0.1 to 1 µM; in test [4] (Homo sapiens, PC-3, PC-3 cells), over 1 µM.
For the compound `CNC(=O)c1ccccc1Nc1nc(Nc2ccc(N3CCN(C(=O)NCCCNCCOCC(=O)Nc4ccc5c(c4)CN(C4CCC(=O)NC4=O)C5=O)CC3)cc2)ncc1Cl` (stereo not shown) [UB-181062], the IC50 was 0.01 to 0.1 µM in test [1] (setting [5]); 0.1 to 1 µM in test [2] (setting [6]); over 1 µM in test [3] (setting [7]); over 1 µM in test [4] (Homo sapiens, PC-3, PC-3 cells).
`NC(COCCOCCNC(=O)[C@]1(Cc2cccc(Nc3nccs3)n2)CC[C@@H](Oc2cccc(Cl)c2F)CC1)COCCC(=O)Nc1ccc2c(c1)CN(C1CCC(=O)NC1=O)C2=O` (stereo partly shown) [UB-181064]: the IC50 in test [1] (setting [5]) is over 1 µM; in test [2] (setting [6]) it was over 1 µM; in test [3] (setting [7]), over 1 µM; in test [4] (Homo sapiens, PC-3, PC-3 cells), over 1 µM.
`CNC(=O)c1ccccc1Nc1nc(Nc2ccc(N3CCN(C(=O)NCCOCCOCC(N)COCCC(=O)Nc4ccc5c(c4)CN(C4CCC(=O)NC4=O)C5=O)CC3)cc2)ncc1Cl` (stereo not shown) [UB-181065]: the half-maximal inhibitory concentration (IC50) was 0.01 to 0.1 µM in test [1] (setting [5]); 0.1 to 1 µM in test [2] (setting [6]); over 1 µM in test [3] (setting [7]); over 1 µM in test [4] (Homo sapiens, PC-3, PC-3 cells).
With `CNC(=O)c1ccccc1Nc1nc(Nc2ccc(N3CCN(C(=O)NCCOCCNCCC(=O)Nc4cccc5c4CN(C4CCC(=O)NC4=O)C5=O)CC3)cc2)ncc1Cl` (stereo not shown) [UB-181066], the half-inhibitory concentration (IC50) was 0.01 to 0.1 µM in test [1] (setting [5]); over 1 µM in test [2] (setting [6]); over 1 µM in test [3] (setting [7]); over 1 µM in test [4] (Homo sapiens, PC-3, PC-3 cells).
Regarding `CNC(=O)c1ccccc1Nc1nc(Nc2ccc(N3CCN(C(=O)NCCOCCNCCC(=O)Nc4ccc5c(c4)CN(C4CCC(=O)NC4=O)C5=O)CC3)cc2)ncc1Cl` (stereo not shown) [UB-181067], the IC50 in test [1] (setting [5]) was 0.01 to 0.1 µM; in test [2] (setting [6]) it was 0.1 to 1 µM; in test [3] (setting [7]) it was over 1 µM; in test [4] (Homo sapiens, PC-3, PC-3 cells), over 1 µM.
As for `CNC(=O)c1ccccc1Nc1nc(Nc2ccc(N3CCN(C(=O)NCCOCCNCC(=O)Nc4cccc5c4CN(C4CCC(=O)NC4=O)C5=O)CC3)cc2)ncc1Cl` (stereo not shown) [UB-181068], the IC50 in test [1] (setting [5]) was 0.01 to 0.1 µM; in test [2] (setting [6]), over 1 µM; in test [3] (setting [7]), over 1 µM; in test [4] (Homo sapiens, PC-3, PC-3 cells) it was over 1 µM.
As to `CNC(=O)c1ccccc1Nc1nc(Nc2ccc(N3CCN(C(=O)NCCOCCNCC(=O)Nc4ccc5c(c4)CN(C4CCC(=O)NC4=O)C5=O)CC3)cc2)ncc1Cl` (stereo not shown) [UB-181069], the IC50 in test [1] (setting [5]) was 0.01 to 0.1 µM; in test [2] (setting [6]), over 1 µM; in test [3] (setting [7]), over 1 µM; in test [4] (Homo sapiens, PC-3, PC-3 cells) it was over 1 µM.
